Results: the supplement of paper PMC12137928
Counter-ions that a name gives are not always drawn.

System: HCT116
Details: 72 h
In short: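 In 1536-well plates, 250 HCT116 cells per well were seeded and left for 5 h to attach. Luminescence from CellTiter-Glo was set against vehicle (0%) and positive control (-100%), and pattern correction was applied. IC50 and maximal efficacy come from four-parameter Hill fitting.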

IC50 cell viability (ICRF193 0 nM) [µM]	IC50 cell viability (ICRF193 200 nM) [µM]	SMILES
> 45.8	> 45.8	CCC(=O)O[C@]1(C(=O)SCF)[C@H](C)C[C@H]2[C@@H]3C[C@H](F)C4=CC(=O)C=C[C@]4(C)[C@@]3(F)[C@@H](O)C[C@@]21C [Fluticasone propionate]
> 45.8	> 45.8	COCCCC/C(=N\OCCN)c1ccc(C(F)(F)F)cc1 [Fluvoxamine]
> 45.8	> 45.8	Nc1nc(=O)c2nc(CNc3ccc(C(=O)N[C@@H](CCC(=O)O)C(=O)O)cc3)cnc2[nH]1 [Folic acid]
> 45.8	> 45.8	Cc1cn[nH]c1 [Fomepizole]
> 45.8	> 45.8	CN(CC(=O)N1CCOCC1)Cc1c(Cl)cccc1NC(=O)c1ccccc1 [Fominoben hydrochloride]
> 45.8	> 45.8	O=c1[nH]cnc2c([C@@H]3N[C@H](CO)[C@@H](O)[C@H]3O)c[nH]c12 [Forodesine (hydrochloride)]
> 45.8	> 45.8	CC(C)CN(C[C@@H](OP(=O)(O)O)[C@H](Cc1ccccc1)NC(=O)O[C@H]1CCOC1)S(=O)(=O)c1ccc(N)cc1 [Fosamprenavir (Calcium Salt)]
> 45.8	> 45.8	CN[C@@H]1CCc2[nH]c3ccc(C(N)=O)cc3c2C1 [Frovatriptan succinate]
> 45.8	> 45.8	N[C@@H](CSCCCO)C(=O)O [Fudosteine]
> 45.8	> 45.8	CO[C@@H]1[C@H](OC(=O)/C=C/C=C/C=C/C=C/C(=O)O)CC[C@]2(CO2)[C@H]1[C@@]1(C)O[C@@H]1CC=C(C)C [Fumagillin]
> 45.8	> 45.8	CC(OC(=O)NCC1(CC(=O)O)CCCCC1)OC(=O)C(C)C (stereo unspecified) [GABAPENTIN ENACARBIL]
> 45.8	> 45.8	CCCCCCCCCCCC(=O)OCC(O)CO (stereo unspecified) [GLYCERYL LAURATE]
> 45.8	> 45.8	COc1ccc2c3c1O[C@H]1C[C@@H](O)C=C[C@@]31CCN(C)C2 [Galanthamine]
> 45.8	> 45.8	COc1ccc(CCN(C)CCCC(C#N)(c2cc(OC)c(OC)c(OC)c2)C(C)C)cc1OC (stereo unspecified) [Gallopamil hydrochloride]
> 45.8	> 45.8	CC(C)=CCC/C(C)=C/CO [Geraniol]
> 45.8	> 45.8	Oc1cc(O)c(Cl)cn1 [Gimeracil]
> 45.8	> 45.8	CCC1=C(C)CN(C(=O)NCCc2ccc(S(=O)(=O)NC(=O)N[C@H]3CC[C@H](C)CC3)cc2)C1=O [Glimepiride]
> 45.8	> 45.8	Cc1cnc(C(=O)NCCc2ccc(S(=O)(=O)NC(=O)NC3CCCCC3)cc2)cn1 [Glipizide]
> 45.8	> 45.8	N[C@H]1C(O)O[C@H](CO)[C@@H](O)[C@@H]1O (stereo partly specified) [Glucosamine hydrochloride]
> 45.8	> 45.8	COc1ccc(Cl)cc1C(=O)NCCc1ccc(S(=O)(=O)NC(=O)NC2CCCCC2)cc1 [Glybenclamide]
> 45.8	> 45.8	CC(C)(C)c1nnc(NS(=O)(=O)c2ccccc2)s1 [Glybuzole]
> 45.8	> 45.8	O=C(NN1CCCC1)NS(=O)(=O)c1ccc(Cl)cc1 [Glyclopyramide]

Second part, the molecule before the results:

SMILES	IC50 cell viability (ICRF193 0 nM) [µM]	IC50 cell viability (ICRF193 200 nM) [µM]
C[N+]1(CCF)[C@@H]2CC[C@H]1C[C@@H](OC(=O)C(O)(c1ccccc1)c1ccccc1)C2 (stereo partly specified) [Flutropium bromide]	> 45.8	> 45.8
COc1ccc(CC(C)NCC(O)c2ccc(O)c(NC=O)c2)cc1 (stereo unspecified) [Formoterol hemifumarate]	> 45.8	> 45.8
O=C(O)P(=O)(O)O [Foscarnet trisodium]	> 45.8	> 45.8
CC/C(=C(/CC)c1ccc(OP(=O)(O)O)cc1)c1ccc(OP(=O)(O)O)cc1 [Fosfestrol tetrasodium]	> 45.8	> 45.8
O=P(O)(O)OC(Cn1cncn1)(Cn1cncn1)c1ccc(F)cc1F [Fosfluconazole]	> 45.8	> 45.8
O=C1NC(c2ccccc2)(c2ccccc2)C(=O)N1COP(=O)(O)O [Fosphenytoin]	> 45.8	> 45.8
CCOP(=O)(OCC)C(C)NC(=O)N(CCCl)N=O (stereo unspecified) [Fotemustine]	> 45.8	> 45.8
C[C@]12CC[C@@H]3c4ccc(O)cc4C[C@@H](CCCCCCCCC[S+]([O-])CCCC(F)(F)C(F)(F)F)[C@H]3[C@@H]1CC[C@@H]2O (stereo partly specified) [Fulvestrant]	> 45.8	> 45.8
O=C1OCCN1/N=C/c1ccc([N+](=O)[O-])o1 [Furazolidone]	> 45.8	> 45.8
NS(=O)(=O)c1cc(C(=O)O)c(NCc2ccco2)cc1Cl [Furosemide]	> 45.8	> 45.8
CC(=O)O[C@H]1C[C@@]2(C)[C@@H](C[C@@H](O)[C@H]3[C@@]4(C)CC[C@@H](O)[C@@H](C)[C@@H]4CC[C@@]32C)/C1=C(\CCC=C(C)C)C(=O)O [Fusidic Acid (sodium salt)]	> 45.8	> 45.8
CN[C@@H]1[C@@H](O)[C@@H](O[C@@H]2[C@@H](O)[C@H](O[C@H]3O[C@H](CN)CC[C@H]3N)[C@@H](N)C[C@H]2N)OC[C@]1(C)O.CN[C@@H]1[C@@H](O)[C@@H](O[C@@H]2[C@@H](O)[C@H](O[C@H]3O[C@H]([C@@H](C)N)CC[C@H]3N)[C@@H](N)C[C@H]2N)OC[C@]1(C)O.CN[C@@H]1[C@@H](O)[C@@H](O[C@@H]2[C@@H](O)[C@H](O[C@H]3O[C@H]([C@@H](C)NC)CC[C@H]3N)[C@@H](N)C[C@H]2N)OC[C@]1(C)O [GENTAMICIN SULFATE]	> 45.8	> 45.8
CC(C)OC(=O)[C@H](C)N[P@](=O)(CO[C@H](C)Cn1cnc2c(N)ncnc21)Oc1ccccc1 [GS-7340]	> 45.8	> 45.8
NCC1(CC(=O)O)CCCCC1 [Gabapentin]	> 45.8	> 45.8
CCOC(=O)c1ccc(OC(=O)CCCCCNC(=N)N)cc1 [Gabexate mesilate]	> 45.8	> 45.8
O=C(O)c1cc(O)c(O)c(O)c1 [Gallic acid]	> 45.8	> 45.8
CCCN1C[C@H](C)[C@@H](O)[C@](C)(O)[C@@H](CC)OC(=O)[C@H](C)[C@@H](O[C@H]2C[C@@](C)(OC)[C@@H](O)[C@H](C)O2)[C@H](C)[C@@H](O[C@@H]2O[C@H](C)C[C@H](N(C)C)[C@H]2O)[C@](C)(O)C[C@H]1C [Gamithromycin]	> 45.8	> 45.8
CCCCC/C=C\C/C=C\C/C=C\CCCCC(=O)O [Gamolenic acid]	> 45.8	> 45.8

SMILES	IC50 cell viability (ICRF193 0 nM) [µM]	IC50 cell viability (ICRF193 200 nM) [µM]
Nc1nc2c(ncn2COC(CO)CO)c(=O)[nH]1 [Ganciclovir]	> 45.8	> 45.8
C[C@H]1NCc2cc(-c3ccc4c(=O)c(C(=O)O)cn(C5CC5)c4c3OC(F)F)ccc21 [Garenoxacin mesylate hydrate]	> 45.8	> 45.8
COc1c(N2CCNC(C)C2)c(F)cc2c(=O)c(C(=O)O)cn(C3CC3)c12 (stereo unspecified) [Gatifloxacin]	> 45.8	> 45.8
CC(C)=CCC/C(C)=C/CC/C(C)=C/CCC(=O)OC/C=C(\C)CCC=C(C)C [Gefarnate]	> 45.8	> 45.8
Cc1ccc(C)c(OCCCC(C)(C)C(=O)O)c1 [Gemfibrozil]	> 45.8	> 45.8
CO/N=C1\CN(c2nc3c(cc2F)c(=O)c(C(=O)O)cn3C2CC2)CC1CN (stereo unspecified) [Gemifloxacin mesylate]	> 45.8	> 45.8
C#C[C@]1(O)C=C[C@H]2[C@@H]3CCC4=CC(=O)CC[C@@H]4[C@H]3CC[C@@]21CC [Gestodene]	> 45.8	> 45.8
CC(=O)[C@@]1(O)CC[C@H]2[C@@H]3CCC4=CC(=O)CC[C@@H]4[C@H]3CC[C@@]21C [Gestonorone]	> 45.8	> 45.8
O=C(OCC(O)CO)c1ccccc1Nc1ccnc2cc(Cl)ccc12 (stereo unspecified) [Glafenine hydrochloride]	> 45.8	> 45.8
Cc1ccc(S(=O)(=O)NC(=O)NN2CC3CCCC3C2)cc1 (stereo unspecified) [Gliclazide]	> 45.8	> 45.8
COc1ccc2c(c1)C(=O)N(CCc1ccc(S(=O)(=O)NC(=O)NC3CCCCC3)cc1)C(=O)C2(C)C [Gliquidone]	> 45.8	> 45.8
O=C1O[C@H](CO)[C@@H](O)[C@H](O)[C@H]1O [Gluconolactone]	> 45.8	> 45.8
NC(=O)[C@H]1O[C@@H](O)[C@H](O)[C@@H](O)[C@@H]1O [Glucuronamide]	> 45.8	> 45.8
O=CCCCC=O [Glutaraldehyde]	> 45.8	> 45.8
Nc1ccccc1C(=O)OCC(O)CO (stereo unspecified) [Glyceryl 1-(2-aminobenzoate)]	> 45.8	> 45.8
C[N+]1(C)CCC(OC(=O)C(O)(c2ccccc2)C2CCCC2)C1 (stereo unspecified) [Glycopyrrolate bromide]	> 45.8	> 45.8
COCCOc1cnc(NS(=O)(=O)c2ccccc2)nc1 [Glymidine sodium]	> 45.8	> 45.8
CC(C)C[C@H](NC(=O)[C@@H](COC(C)(C)C)NC(=O)[C@H](Cc1ccc(O)cc1)NC(=O)[C@H](CO)NC(=O)[C@H](Cc1c[nH]c2ccccc12)NC(=O)[C@H](Cc1cnc[nH]1)NC(=O)[C@@H]1CCC(=O)N1)C(=O)N[C@@H](CCCNC(=N)N)C(=O)N1CCC[C@H]1C(=O)NNC(N)=O [Goserelin (acetate)]	> 45.8	> 45.8
